Data: US9913827B2, “Bendamustine derivatives and methods of using same” (IGNYTA, INC., priority 2012, dated 2018)
Like-named read-outs stand apart in the source and are kept apart here. Marks after values point to notes of the source that are not given here.

Assays:
MDA-MB-231 xenografts = test: Nude mouse MDA-MB-231 tumor efficacy study; assay type: in vivo, athymic nude mice
Method: Charles River Labs athymic nude mice were subcutaneous injected with 5×10^6 human tumor cells in matrigel. The tumor volume was monitored until an average tumor size of ˜150 mm^3 was obtained in the mouse population The mice were then randomized in to one of the nine treatment groups (summarized in table below) with a population of 10 mice per group (n=10). Each of the formulations was dosed at 100 μL fixed volume via tail vein injection on day 1 and day 2 of the study. Mice were weighed and the tumor volume measured every 3-4 days for 3 weeks of the study duration.

[1] = Tumor efficacy PK group, H-460 tumor-bearing mice: tumor and plasma levels; conditions: for Ester level in Plasma at 1 hour / Ester level in Tumor at 1 hour: 80 mg/kg i.v.
Method: The formulations were administrated as 100 μL dose volume through tail vein injection within 30 minutes after compounds were formulated. All the mice were weighed and tumors measured twice weekly. At the last day of the study, plasma, tumor, lung, liver, spleen, left kidney, brain and legs were collected and quickly frozen for further analysis two hours post-dosing.
(§1) A portion of the tumor bearing mice were dosed as a satellite PK group. Each group was dosed as described for the tumor efficacy group, however the PK group was euthanized and tissue samples collected at 1, 3 and 6 hours post dosing on day 2. The tissues collected included blood, lung, liver and tumor. Samples were analyzed for bendamustine HCl and the corresponding ester analogue as described in the LC-MS protocol section.
(§2) Plasma and other tissues were prepared for high performance liquid chromatography (HPLC)/mass spectrometric analysis according to a standard protocol following protein precipitation with acetonitrile containing an internal standard. The samples were then analyzed for both bendamustine HCl and bendamustine esters of the invention and alprenolol (internal standard) via HPLC coupled with tandem mass spectrometry. Tissue samples were homogenized in sodium phosphate buffer and the value obtained from the assay was multiplied by 3 to correct for dilution during processing.

[2] = system: H460 tumor cells (large cell lung cancer); test: Nude mouse H460 tumor efficacy study; assay type: in vivo, nu/nu mouse
Method: 2×10^6 cells/100 ul in the mix of medium and Matrigel (1:1 ratio) solution was injected into right back flank of each nu/nu mouse. The implanted mice were monitored and measured with electric calipers. The study started when the tumors reached ˜150 mm^3 in size. The mice were measured and randomized into 9 groups with 10 mice in each group per the below table: […]

[3] = Tumor efficacy PK group, MB-231 tumor-bearing mice: tumor and plasma levels; conditions: for Ester level in Plasma at 1 hour / Ester level in Tumor at 1 hour: 80 mg/kg i.v.
Method: as §1, §2

[4] = Rat plasma pharmacokinetics at 3 mg-eq/kg i.v.; conditions: solution formulation 3 mg-eq/kg i.v.
MB-231 (HBC) = test: MTS cell assay (cell proliferation), MB-231; assay type: cell-based; conditions: Homo sapiens, 72 hours
Method: Charles River Labs athymic nude mice bearing MDA-MB-231 breast carcinoma cell line subcutaneous xenografts (5×10^6 cells in matrigel) were sacrificed to make a tumor isolate. Using sterile instruments and working aseptically, the tumors were removed from the euthanized animal. The tumor was placed in a 50 mL sterile conical tube and 5 mL of trypsin was added. The tumor was cut into small pieces and incubated at 37° C. for 30 minutes. After incubation, a cell strainer was placed on a second, sterile, 50 mL conical tube and the contents of the first tube were placed in the cell strainer. The tissue was forced through the filter using the flat end of a syringe plunger. The cell strainer was washed with 5 mLs of media containing FBS. The cells were spun down and the supernatant was discarded. The cells were resuspended in 20 mLs of complete media containing P/S and placed in a 75 cm flask.
(§3) Human carcinoma cells (2,000 cells/well) were incubated with the desired concentration of the test molecule (0-200 μM) for 72 hours. The cells were then incubated with MTS solution (Promega) for 1-2 hours, and the compounds effects on cell proliferation was determined by measuring the absorbance at 490 nm. Cell growth was expressed as a percent of the appropriate control (placebo). […] All data reported was the mean±SE of three independent experiments.

H-460 (NSCLC) = test: MTS cell assay (cell proliferation), H-460; assay type: cell-based; conditions: Homo sapiens, NCI-H460, 72 hours
Method: as §3

[5] = system: RPMI 8226 (Human Plasmacytoma, Myeloma B Cells); assay type: in vivo, CB.17 SCID female mice; conditions: day 46
Method: RPMI 8226 (Human Plasmacytoma, Myeloma B Cells) ATCC #CCL-155;
80 CB.17 SCID female mice, 4-6 weeks old, 16-20 grams, obtained from Harlan animal breeding center
Cells (originated from ATCC) were cultured on RPMI medium. Cell suspension was centrifuged and resuspended in 50% Matrigel/HBSS to a final concentration of 7×10^7 cells/ml. The suspension was implanted s.c. in the right flank of the anesthetized mouse at a volume of 100 μl.
Seven ml saline were added to the original vial containing 3.5 mg powder resulting in 0.5 mg/ml. Three ml of this solution were added to 27 ml saline to receive 0.05 mg/ml concentration.
bendamustine preparation: 13.5 mg was dissolved in 3.6 ml of 1:1 mixture of 0.9% saline/5% mannitol just before the treatment. 1.05 ml of this solution was added to 0.95 ml diluent for 2 mg/ml solution.
1.05 ml of this solution was added to 0.95 ml diluent for 2 mg/ml solution.
On day 21, mice were sorted by the optimal average tumor volume (˜150 mm^3) and were allocated into eight groups of 9 mice each.
[formula] The analysis of weight gain and tumor volume progression was made using one-way ANOVA followed by Tukey post-hoc comparisons. Results

[6] = HSA nanoparticle, 80 mg/kg i.v. day 1 and 2
[7] = Solution, 80 mg/kg i.v. day 1 and 2
[8] = HSA nanoparticle, 80 mg/kg i.v.
[9] = Solution, 37.5 mg/kg i.v. day 1 and 2

In the case of `CCCCCCCCCCCCCCOC(=O)CCCc1nc2cc(N(CCCl)CCCl)ccc2n1C` [bendamustine C14 ester, 4-{5-[Bis-(chloroethyl)-amino]-1-methyl-1H-benzimidazol-2-yl}butyric acid tetradecyl ester], the “% Morbidity” value (MDA-MB-231 xenografts; [6]) is reported as 60%, the “% Mortality” value (MDA-MB-231 xenografts; [6]) is reported as 0% and the “% Morbidity” value (MDA-MB-231 xenografts; [7]) is reported as 40%. For the same compound, the “% Mortality” value (MDA-MB-231 xenografts; [7]) was 0%, the “% Tumor Inh.” value (MDA-MB-231 xenografts; [7]) was 90% and the “Ester level in Plasma at 1 hour” value ([1]; HSA nanoparticle) was 3648 ng/mL. For the same compound, the “Ester level in Tumor at 1 hour” value ([1]; HSA nanoparticle) was 4570 ng/mL, the “Ester level in Plasma at 1 hour” value ([1]; Solution) was 32233 ng/mL and the “Ester level in Tumor at 1 hour” value ([1]; Solution) was 8570 ng/mL. The “% Morbidity” value [2, 8] was 10%, the “% Mortality” value [2, 8] was 0% and the “% Tumor Inh.” value [2, 8] was 40%. For the same compound, the “% Morbidity” value ([2]; Solution, 80 mg/kg i.v.) was 100%, the “% Mortality” value ([2]; Solution, 80 mg/kg i.v.) was 40% and the “% Tumor Inh.” value ([2]; Solution, 80 mg/kg i.v.) was 81%. The “Ester level in Plasma at 1 hour” value ([3]; HSA nanoparticle) was 5727 ng/mL, the “Ester level in Tumor at 1 hour” value ([3]; HSA nanoparticle) was 10430 ng/mL and the “Ester level in Plasma at 1 hour” value ([3]; Solution) was 14 ng/mL. The “Ester level in Tumor at 1 hour” value ([3]; Solution) was 396 ng/mL.

With `CCCCCC(CCCC)OC(=O)CCCc1nc2cc(N(CCCl)CCCl)ccc2n1C` (stereo not shown) [5-decanyl ester, 4-{5-[Bis-(chloroethyl)-amino]-1-methyl-1H-benzimidazol-2-yl}butyric acid 5-decyl ester] the “Plasma levels of the dosed Ester” value [4] was “All < MQL”.

`CCCCCCCCOC(=O)CCCc1nc2cc(N(CCCl)CCCl)ccc2n1C` [bendamustine C8 ester, 4-{5-[Bis-(chloroethyl)-amino]-1-methyl-1H-benzimidazol-2-yl}butyric aid octyl ester] showed an IC50 (MB-231 (HBC)) of 53.1 µM and an IC50 (H-460 (NSCLC)) of 49 µM.

With `Cn1c(CCCC(=O)O)nc2cc(N(CCCl)CCCl)ccc21` [Bendamustine, 4-[5-[bis(2-chloroethyl)amino]-1-methylbenzimidazol-2-yl]butanoic acid] the “% TGI” value ([5]; 20 mg/kg iv on days 1 and 2) was 66*** %, the “No. of CR” value ([5]; 20 mg/kg iv on days 1 and 2) was 0 and the “No. of PR” value ([5]; 20 mg/kg iv on days 1 and 2) was 0. The “Δ mean tumor volume, (mean ± se)” value ([5]; 20 mg/kg iv on days 1 and 2) was 205 ± 44, the “No. of CR” value ([5]; 37.5 mg/kg iv on days 1 and 2) was 0 and the “No. of PR” value ([5]; 37.5 mg/kg iv on days 1 and 2) was 0. The “Δ mean tumor volume, (mean ± se)” value ([5]; 37.5 mg/kg iv on days 1 and 2) was 113 ± 23, the “% TGI” value ([5]; 37.5 mg/kg iv on days 1 and 2, 37.5 mg/kg) was 81% and the “% Morbidity” value (MDA-MB-231 xenografts; [9]) was 10%. For the same compound, the “% Mortality” value (MDA-MB-231 xenografts; [9]) was 0%, the “% Tumor Inh.” value (MDA-MB-231 xenografts; [9]) was 77% and the “BM1 level in Plasma at 1 hour” value ([1]; Solution, 37.5 mg/kg i.v.) was 1550 ng/mL. The “BM1 level in Tumor at 1 hour” value ([1]; Solution, 37.5 mg/kg i.v.) was 1472 ng/mL, the “% Morbidity” value ([2]; Solution, 37.5 mg/kg i.v.) was 0/0% and the “% Mortality” value ([2]; Solution, 37.5 mg/kg i.v.) was 0/0%. The “BM1 level in Plasma at 1 hour” value ([3]; Solution, 37.5 mg/kg i.v.) was 906 ng/mL and the “BM1 level in Tumor at 1 hour” value ([3]; Solution, 37.5 mg/kg i.v.) was 558 ng/mL.

With `Cn1c(CCCC(=O)OC2CCCCC2)nc2cc(N(CCCl)CCCl)ccc21` [Cy-hexyl bendamustine ester, 4-{5-[Bis-(chloroethyl)-amino]-1-methyl-1H-benzimidazol-2-yl}butyric acid cyclohexyl ester] the “Plasma levels of the dosed Ester” value [4] was “All < MQL”.
